These results are taken from US20230255943A1, “MMP-9 AND MMP-12 INHIBITION FOR TREATING SPINAL CORD INJURY OR RELATED INJURY TO NEUROLOGICAL TISSUE” (The University of Birmingham, priority 2020, published 2023).

“Also recorded” adds a separate entry of the source. Counter-ions that a name gives are not always drawn.

Assay [1] relates to mice with DC crush injury. Kind of assay: Spinal cord water content (oedema) after DC crush injury in mice. As to conditions: for spinal cord water content, comparison of MMP inhibitors (FIG. 4) / spinal cord water content: 3 days after DC injury; for spinal cord water content, comparison of MMP inhibitors (FIG. 4): doses and routes of Table 1, vs DC+vehicle. The assay is classed as in vivo, mouse. As to the method:
For oral delivery of AZD1236, n=6 adult male C57BL6 mice/group (Charles River, Margate, UK) were randomly allocated to either: (1), Sham (control; partial laminectomy but no DC crush injury); (2), DC crush injury+vehicle (partial laminectomy followed by DC crush injury and injection of vehicle); (3), DC crush injury+100 mg/kg AZD1236; (4), DC crush injury+200 mg/kg AZD1236; and (5), DC crush injury+300 mg/kg AZD1236. For intrathecal (it) delivery of AZD1236, adult male C57BL6 mice (25-30 g) (Charles River, Margate, UK) were randomly allocated to either: (1), Sham (control; partial laminectomy but no DC crush injury); (2), DC crush injury+vehicle (partial laminectomy followed by DC crush injury and injection of vehicle); (3), DC crush injury+2.5 mg/kg AZD1236; (4), DC crush injury+5 mg/kg AZD1236; and (5), DC crush injury+10 mg/kg AZD1236. For intrathecal delivery an indwelling atlanto-occipital intrathecal catheter was inserted into the intrathecal space, as described previously (F. A. Oladosu, B. P. Ciszek, S. C. O'Buckley, A. G. Nackley, Novel intrathecal and subcutaneous catheter delivery systems in the mouse. J Neurosci Methods 264, 119-128 (2016)). Briefly, with mice in the sternal recumbency a small incision was made at the nape of the neck followed by detachment of the muscles on either side of the external occipital crest to expose the A-O membrane. The membrane was incised and a 6 cm Alzet mouse intrathecal catheter (Alzet, Cupertino, Calif., USA) and polyurethane segments were gently guided 2.5 cm into the intrathecal space. The catheter was secured using 4-0 silk sutures (Oasis Medical, IL) and the exposed end of the catheter was sealed off with a stainless-steel plug and affixed to the upper back. Animals were injected immediately with vehicle or AZD1236 followed by a 10 μl PBS catheter flush. Injections were repeated every twice daily for the first 3 days after injury and drugs and vehicle reagents were delivered over 1 min time period using a Hamilton microlitre syringe (Hamilton Co, USA). Where specified intact animals with no surgical procedures were also used. All lesions were administered under 5% isofluorane induced inhalation anaesthesia, with 1.51/min O2. Pre- and post-injury analgesia was also provided.
DC crush injury was administered bilaterally at the T8 vertebral level as described previously (S. Surey, M. Berry, A. Logan, R. Bicknell, Z. Ahmed, Differential cavitation, angiogenesis and wound-healing responses in injured mouse and rat spinal cords. Neuroscience 275, 62-80 (2014); M. L. Read, S. Mir, R. Spice, R. J. Seabright, E. L. Suggate, Z. Ahmed, M. Berry, A. Logan, Profiling RNA interference (RNAi)-mediated toxicity in neural cultures for effective short interfering RNA design. J Gene Med 11, 523-534 (2009)). Briefly, calibrated watchmaker's forceps were separated by 0.5 mm and inserted through the dorsal cord meninges to a depth of 0.45 mm in mice and separated by 1 mm and inserted through the dorsal cord meninges to a depth of 1.0 mm in rats, and the DC were crushed for 3 seconds. AZD1236 or vehicle was administered twice daily by oral gavage or intrathecally, either immediately for the first 3 days or 24 hours after injury and treating twice daily until day 4 (i.e. 3 days of AZD1236 dosing). All experiments were performed with n=6 mice/group and repeated on at least 2-3 independent occasions (total=12-18 animals/group/test).
The lesion site+3 mm either side for mice and the lesion site+5 mm either side for the rat DC model were dissected out and the water content of the spinal cord (as a measure of oedema) was determined at 3 days after DC and CC SCI, as described previously (S. Li, C. H. Tator, Effects of MK801 on evoked potentials, spinal cord blood flow and cord edema in acute spinal cord injury in rats. Spinal Cord 37, 820-832 (1999)). Spinal cords containing the lesion site were weighed on aluminium foil, dried at 105° C. for 24 hr, and re-weighed. […]

In assay [2] the test system is mice with DC crush injury. In kind it is in vivo, mouse. As to conditions: for number of CTB+ DC axons regenerating, comparison with other MMP inhibitors (FIG. 11): mouse, in vivo.
Assay [3] deals with J774A.1, RAW 264.7 and primary mouse peritoneal macrophages. Kind of assay: Transwell migration assay of macrophages. The assay is classed as cell-based. As to conditions: J774A.1 and RAW 264.7, 3 h. As to the method: J774A.1 cells (#TIB-67; ATCC, Middlesex, UK) were cultured in DMEM supplemented with 10% FBS, 100 U/ml penicillin, 100 μg/ml streptomycin, and 0.25 μg amphotericin B. Cells were seeded in T75 tissue-culture flasks and maintained at 37° C. and 5% CO2. RAW 264.7 cells (#TIB-71; ATCC) were maintained in DMEM containing 10% FBS.
Resident peritoneal cells were harvested from adult C57BL/6 mice (6-8 weeks old) by injection of 10 ml of PBS using a 21G needle into the peritoneal cavity and harvesting the cell suspension, as described previously (Rosas M, Davies L C, Giles P J, Liao C T, Kharfan B, Stone T C, et aL. The transcription factor Gata6 links tissue macrophage phenotype and proliferative renewal. Science 2014; 344(6184): 645-8). Peritoneal cells were then centrifuged at 100×g for 10 min and the cell pellet resuspended in DMEM/F12 medium. Cell were incubated at 37° C., for 2 h and non-adherent cells were removed by gentle washing. Cells were expanded in DMEM/F12 medium containing 10% FBS. For migration assays, cells were grown in RPMI containing 0.02% BSA for 24 h to obtain quiescent cells prior to using them in Transwell migration assays as described below.
Migration assays were performed with J774A.1, RAW 264.7 and primary mouse peritoneal macrophages in 6.5 mm Transwell plates (ThermoFisher) with 8 μm pore inserts, as described previously (Green et al., 2012). Briefly, inserts were coated with rat tail type I collagen and 1×10^5 cells (J774A.1, RAW 264.7 or primary mouse macrophages) were resuspended in chemotaxis buffer (RMPI 1640 plus 0.02% BSA, (termed RPMI from herein)) and added to the upper chamber and incubated with migration medium, with or without known chemotactic factors MCP-1 (100 ng/ml) and PMA (100 nM), or AZD1236, GM6001, SD2590 and MMP-9 Inhibitor I (all used at 1, 10, 100, 1000 ng/ml) added to the lower chamber. Cells were allowed to migrate through the insert membrane for 3 h at 37° C., before washing inserts with PBS. Non-migrating cells remaining on the upper surface were removed with a cotton swab whilst the migrated cells on the insert were fixed, stained with Diff-Quick (#26096, Electron Microscopy Science, Hatfield, UK), and mounted on glass slides. Migration was measured visually by counting using a light microscope at 40× magnification. The mean number of cells in 10 random fields were calculated for each treatment by an experimenter masked to the treatment conditions. A migration index was calculated by dividing the number of cells that migrated in response to the chemokine by the number of cells that migrated randomly (RPMI medium) with a reference index>1, indicating chemotaxis.

As for `C[C@]1(CS(=O)(=O)N2CC=C(C#Cc3cnc(C4CC4)nc3)CC2)NC(=O)NC1=O` [AZD1236], in assay [1], the “spinal cord water content, comparison of MMP inhibitors (FIG. 4)” value is “far more effective than any of these compounds; also recorded: almost completely ablating DC injury-induced rises”. Further, in assay [1] (intrathecal vs oral), the “intrathecal dose required for same reduction of water content, as fraction of oral dose” value is 1/40. For the same compound, the “spinal cord water content” value in assay [1] (intrathecal, 5.0 and 10.0 mg/kg) is “reduced to sham-treated levels”; in assay [1] (oral, twice daily, 200 mg/kg and 300 mg/kg), “reducing to sham-treated levels”. Besides, in assay [1] (optimal doses, 24 h delay vs immediate), the “SCI-induced water content, 24-h delayed treatment” value is “equally as effective as immediate delivery”. In addition, the “CTB+ fibres regenerating through the lesion site, 24 h delayed treatment” value in assay [2] (24 h delay vs immediate) is given as “promoted the same amount”. In addition, in assay [2], the “number of CTB+ DC axons regenerating, comparison with other MMP inhibitors (FIG. 11)” value (from here on “number … with other MMP inhibitors (FIG. 11)”) was “far superior at promoting DC axon regeneration”. The “extension of CTB labelled axons from the lesion centre” value in assay [2] (oral) is “at least 1000 μm”. For the same compound, in assay [2] (oral, vs DC+Vehicle), the “CTB+ labeling intensity (percentage of CTB labelled axons)” value is recorded as “significantly enhanced percentage of CTB labelled axons”. In addition, in assay [3], the “macrophage migration (migration index, chemotaxis)” value is recorded as “no effect on chemotaxis”.

`CNC(=O)[C@H](Cc1c[nH]c2ccccc12)NC(=O)[C@@H](CC(=O)NO)CC(C)C` [GM6001, (2R)—N^4-Hydroxy-N^1-[(1S)-1-(1H-indol-3-ylmethyl)-2-(methylamino)-2-oxoethyl]-2-(2-methylpropyl)butanediamide, reference compound]: in assay [1], the “spinal cord water content, comparison of MMP inhibitors (FIG. 4)” value is “significantly reduced spinal cord water content”. The “number … with other MMP inhibitors (FIG. 11)” value in assay [2] is given as “only a marginal effect on axon regeneration”. The “macrophage migration (migration index, chemotaxis)” value in assay [3] is reported as “not affected”.

For the compound `CCN(CC)Cc1cc(C)c(N(Cc2ccccc2)S(=O)(=O)c2ccc(OC)cc2)c(C(=O)NO)c1` [MMP-9 Inhibitor I, reference compound], the “spinal cord water content, comparison of MMP inhibitors (FIG. 4)” value in assay [1] is recorded as “significantly reduced spinal cord water content”. Moreover, the “number … with other MMP inhibitors (FIG. 11)” value in assay [2] is “only a marginal effect on axon regeneration”. Moreover, the “macrophage migration (migration index, chemotaxis)” value in assay [3] was “not affected”.

Consider `COCCN1CCC(C(=O)NO)(S(=O)(=O)c2ccc(Oc3ccc(OC(F)(F)F)cc3)cc2)CC1` [SD2590, N-Hydroxy-1-(2-methoxyethyl)-4-[4-[4-(trifluoromethoxy)phenoxy]phenyl]sulfonyl]-4-piperidinecarboxamide hydrochloride, reference compound], for which the “spinal cord water content, comparison of MMP inhibitors (FIG. 4)” value in assay [1] was “significantly reduced spinal cord water content”. Further, the “number … with other MMP inhibitors (FIG. 11)” value in assay [2] is listed as “only a marginal effect on axon regeneration”. In assay [3], the “macrophage migration (migration index, chemotaxis)” value is “not affected”.
